Laboratory results: US20260232706A1, “1H-PYRAZOLE ANALOGUES AND METHODS AND USES THEREOF” (University of Manitoba, priority 2022, published 2026)

Experiments:
[1] = tested on: primary cortical neuronal cells; test: Neurotoxicity/cell viability analysis in primary cortical neuronal cells (WST-8); format: cell-based, mouse; conditions: for cell viability compared to controls: 10 μM and 1 μM, FIG. 6B
Protocol: (§1) Methods: The in vitro properties and antioxidant abilities of the synthesized B^5-EDR analogues were assessed in cell-based assays. […] The methodology employed for each of these assays is detailed below.
(i) Methodology for neurotoxicity/cell viability analysis in primary cortical neuronal cells (FIGS. 6A-B): Briefly, the cerebral cortex was isolated from fetus of mouse at about 17-about 18-day gestation. After meninges and blood vessels were removed, the tissue was digested with trypsin for about 15 min at about 37° C., then incubated with DNase for about another 15 min at about 37° C. and terminated with DMEM plus about 10% fetal bovine serum. After the supernatant was removed, the tissue was added with about 5-ml neurobasal medium (Life Technologies Inc) and triturated by gently pipetting. Neuronal cells contained in the supernatant were transferred to poly-D-lysine-coated plastic culture plates, adjusted to approximately […], and cultured in neurobasal medium with GS21 supplements (Sigma-Aldrich Canada), 1× GlutaMax (Life Technologies Inc,) and about 1% penicillin-streptomycin at about 37° C. under about 5% CO2. About 100 kcells/100 μl/well were seeded in 96 well plates for 2 Div. […] On 8th Div of neurons, about 10 μl of WST reagent was added to each well and incubated for about 2 h. After about 2 h of incubation, the absorbance of soluble coloured formazan dye was measured […] at about […] using microplate reader (Biotek instruments) with the background control as a blank. The cell viability was determined by comparing the absorbance of compounds treated cells to that of control cells. Data are representative of two independent experiments, with each measurement or dose tested six times.

[2] = tested on: neuroblastoma-spinal cord hybrid NSC-34 cells; test: Neurotoxicity/cell viability analysis in NSC-34 cells (WST-8); format: cell-based; conditions: 1 to 100 μM
Protocol: as §1
(ii) Methodology for neurotoxicity/cell viability analysis in (NSC-34) cells (FIGS. 7A-C): Briefly, NSC-34 cells with about 20 k cells per well in 96 well plates were cultured in a complete medium consisting of high glucose Dulbecco's modified eagle medium (DMEM) (Thermo Fisher Scientific) supplemented with about 10% US-origin fetal bovine serum (Thermo Fisher Scientific), GlutaMAX-1, about 200 mM (100×) (Thermo Fisher Scientific), about 1% 100 mM Sodium pyruvate and about 1% 10,000 U/mL penicillin-streptomycin solution (Thermo Fisher Scientific) for about 20 h to reach confluency of about 70%—about 75%. All the cells were cultured in an incubator with about 5% of CO2 at about 37° C. About 20 kcells/100 μl/well were seeded in 96 well plates for about 20 h in triplicates. Cells were treated with different concentration of compounds and incubated for about 20 h. […] After about 2.5 h of incubation, the absorbance of soluble coloured formazan dye was measured […] at about […] using microplate reader (Biotek instruments) with the background control as a blank. The cell viability was determined by comparing the absorbance of compounds treated cells to that of control cells. […]

[3] = tested on: neuroblastoma-spinal cord hybrid NSC-34 cells; test: Neuroprotective effect/cell viability analysis in NSC-34 cells against H2O2 induced oxidative stress; format: cell-based; conditions: for neuroprotection in scavenging neurotoxic effects of H2O2 compared to EDR / viability compared to EDR: 250 μM H2O2; for viability compared to EDR: 50 μM dose
Protocol: as §1
(iii) Methodology for neuroprotective effect/cell viability analysis in (NSC-34) cells (FIGS. 8A-B): Briefly, NSC-34 cells with about 20 k cells per well in 96 well plates were cultured in a complete medium consisting of high glucose Dulbecco's modified eagle medium (DMEM) (Thermo Fisher Scientific) supplemented with about 10% US-origin fetal bovine serum (Thermo Fisher Scientific), GlutaMAX-1, about 200 mM (100×) (Thermo Fisher Scientific), about 1% 100 mM Sodium pyruvate and about 1% 10,000 U/mL penicillin-streptomycin solution (Thermo Fisher Scientific) for about 20 h to reach confluency of about 70%—about 75%. All the cells were cultured in an incubator with about 5% of CO2 at about 37° C. About 20 kcells/100 μl/well were seeded in 96 well plates for about 20 h in triplicates. […] After about 1 h, the cells were treated with 250 μM of H2O2 for about 2 h. After a total period of about 3 h, about 10 μl of WST-8 reagent was added in each well and the absorbance readings were recorded after about 2.5 h at about 450 nm. All the experiments were repeated at least three times and measurements were run in triplicates.

[4] = cited from earlier work
[5] = target: P-glycoprotein (Pgp) efflux pump (Homo sapiens, UniProt P08183); conditions: cited from earlier work
Chain of P-glycoprotein (Pgp) efflux pump (P08183 whole entry): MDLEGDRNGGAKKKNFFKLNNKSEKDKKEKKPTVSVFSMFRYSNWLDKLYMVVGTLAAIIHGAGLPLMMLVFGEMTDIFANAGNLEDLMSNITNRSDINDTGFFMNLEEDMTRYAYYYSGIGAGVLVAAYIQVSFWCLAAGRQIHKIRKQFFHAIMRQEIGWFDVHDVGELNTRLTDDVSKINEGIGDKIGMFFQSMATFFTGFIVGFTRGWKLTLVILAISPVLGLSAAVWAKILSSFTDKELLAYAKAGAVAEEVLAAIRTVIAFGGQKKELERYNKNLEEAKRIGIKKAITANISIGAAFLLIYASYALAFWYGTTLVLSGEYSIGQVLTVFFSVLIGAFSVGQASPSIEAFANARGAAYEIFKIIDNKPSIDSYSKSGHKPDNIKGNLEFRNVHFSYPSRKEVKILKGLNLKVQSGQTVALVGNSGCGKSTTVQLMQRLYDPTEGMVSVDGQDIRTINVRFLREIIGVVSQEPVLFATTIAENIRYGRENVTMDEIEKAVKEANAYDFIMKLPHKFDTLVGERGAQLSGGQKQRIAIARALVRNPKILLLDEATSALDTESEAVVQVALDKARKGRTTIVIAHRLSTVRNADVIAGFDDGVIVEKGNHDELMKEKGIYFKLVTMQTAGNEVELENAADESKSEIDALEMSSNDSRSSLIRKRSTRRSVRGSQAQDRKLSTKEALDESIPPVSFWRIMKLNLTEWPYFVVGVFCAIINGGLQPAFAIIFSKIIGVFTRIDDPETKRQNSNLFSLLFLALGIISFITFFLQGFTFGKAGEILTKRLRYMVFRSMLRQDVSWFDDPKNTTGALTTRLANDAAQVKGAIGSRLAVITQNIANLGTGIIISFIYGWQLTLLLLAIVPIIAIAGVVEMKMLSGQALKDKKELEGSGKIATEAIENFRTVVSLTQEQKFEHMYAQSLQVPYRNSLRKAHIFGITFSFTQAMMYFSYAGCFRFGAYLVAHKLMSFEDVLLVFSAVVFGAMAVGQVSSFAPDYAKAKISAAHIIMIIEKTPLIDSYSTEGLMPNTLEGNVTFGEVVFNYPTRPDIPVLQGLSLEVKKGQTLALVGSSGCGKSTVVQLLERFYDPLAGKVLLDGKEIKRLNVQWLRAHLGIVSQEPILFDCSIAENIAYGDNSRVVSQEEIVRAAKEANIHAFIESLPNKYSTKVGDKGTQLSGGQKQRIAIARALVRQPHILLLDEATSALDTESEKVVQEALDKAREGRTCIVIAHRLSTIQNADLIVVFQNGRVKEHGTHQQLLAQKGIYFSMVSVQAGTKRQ

CYP3A4 enzymes = CYP3A4 enzymes (Homo sapiens, UniProt P08684); conditions: cited from earlier work
Chain of CYP3A4 enzymes (P08684 whole entry): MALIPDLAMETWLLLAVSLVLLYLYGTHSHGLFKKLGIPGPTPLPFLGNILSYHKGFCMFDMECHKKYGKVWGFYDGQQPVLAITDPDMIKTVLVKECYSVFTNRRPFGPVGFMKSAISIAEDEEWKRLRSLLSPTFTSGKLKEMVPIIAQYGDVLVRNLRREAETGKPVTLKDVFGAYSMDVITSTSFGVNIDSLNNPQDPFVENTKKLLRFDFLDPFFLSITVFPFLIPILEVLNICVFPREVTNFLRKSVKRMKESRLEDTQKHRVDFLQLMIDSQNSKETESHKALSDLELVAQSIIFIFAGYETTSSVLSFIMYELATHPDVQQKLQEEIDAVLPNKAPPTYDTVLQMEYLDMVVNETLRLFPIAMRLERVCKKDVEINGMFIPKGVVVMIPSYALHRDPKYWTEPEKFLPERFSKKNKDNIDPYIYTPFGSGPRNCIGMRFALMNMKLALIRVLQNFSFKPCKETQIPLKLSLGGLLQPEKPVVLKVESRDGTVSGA

ALS = conditions: patients in early stages, drug for 6 months or more; cited from earlier work
[6] = tested on: neuroblastoma-spinal cord hybrid NSC-34 cells; test: Neuroprotective effect/cell viability analysis in NSC-34 cells against H2O2 induced oxidative stress; format: cell-based; conditions: prophylactic treatment, 250 μM H2O2, FIG. 7A

Structure (SMILES)	decrease in cell viability compared to control (DMSO) ([1]; mouse, 6 days, 25 μM)	neurotoxicity and cytotoxicity towards NSC-34 motor neuronal cells [2]	H2O2 scavenging effects ([3]; 250 μM H2O2, FIGS. 8A-B)	aqueous solubility [4]	fraction of EDR existing as an anion ([4]; physiological pH about 7.4)	fraction of EDR existing in neutral form ([4]; physiological pH about 7.4)	P-glycoprotein efflux pump substrate status [5]	metabolism by CYP3A4 (CYP3A4 enzymes)	effect on progression of ALS (ALS)	protection from loss of cell viability induced by H2O2 [6]	neuroprotection in scavenging neurotoxic effects of H2O2 compared to EDR ([3]; 25 μM)	viability compared to EDR [3]	cell viability compared to controls [1]	neuroprotection in scavenging neurotoxic effects of H2O2 compared to EDR ([3]; 1 μM)
CC1=NN(c2ccccc2)C(=O)C1 [EDR, 3-methyl-1-phenyl-2-pyrazolin-5-one]	~70±10%	no neurotoxicity and cytotoxicity	significant H2O2 scavenging effects in a dose dependent manner	about 1.85 mg/ml	about 71.5%	about 28.5%	substrate	metabolized pre-systematically	delayed the progression of ALS	protected NSC-34 cells from loss of cell viability	–	–	–	–
CC1(C)OB(c2cc(C(F)(F)F)nn2-c2ccccc2)OC1(C)C [NS-1-12, 3-triflouromethyl-5-(4,4,5,5-tetramethyl-1,3,2-dioxaborolan-2-yl)-1-phenyl1H-pyrazole]	–	–	–	–	–	–	–	–	–	–	better neuroprotection	almost equal viability	–	–
F[B-](F)(F)c1cc(C(F)(F)F)nn1-c1ccccc1.[K+] [NS-1-19, Potassium trifluoro(3-triflouromethyl-1phenyl-1H-pyrazol-5-yl)borate]	–	–	–	–	–	–	–	–	–	–	better neuroprotection	almost equal viability	around 100%	better neuroprotection
Cc1cc([B-](F)(F)F)n(-c2ccccc2)n1.[K+] [NS-1-21, Potassium trifluoro(3-methyl-1phenyl-1H-pyrazol-5-yl)borate]	–	–	–	–	–	–	–	–	–	–	better neuroprotection	almost equal viability	around 100%	better neuroprotection
